Several values for one entry are separate records, joined by “and”; a condition that tells them apart may be missing. Identical values can stand only once. Like-named read-outs stand apart in the source and are kept apart here.

The source of these data is paper PMC5802374 (Cell, 2018).

For assay [1], the target named is T1, MOP (Homo sapiens, UniProt P35372). Put plainly: cAMP inhibition assay. Format: cell-based. The note with it: N = 3.
The target of assay [2] is T2, KOP (Homo sapiens, UniProt P41145). Type of assay: cell-based.
Assay [3] has as its target T3, KOP wt (Homo sapiens, UniProt P41145). To be noted: N = 3.
Assay [4] addresses T1, MOP. To be noted: N = 3.
Assay [5] addresses T1, MOP. Briefly: Bias factor towards G protein in MOP. The note with it: GTPγ[35S] vs BRET arrestin recruitment; DAMGO as reference agonist. Format: cell-based. (In general: BRET reads energy transfer from a luciferase to a nearby fluorophore.)
Assay [6] deals with T2, KOP. Type of assay: cell-based. This is another data set of the same source.
Assay [7] addresses T3, KOP wt. Briefly: cell-based.
Assay [8] deals with T1, MOP. Briefly: cell-based.
In assay [9] the target is T2, KOP. Briefly: biochemical.
Assay [10] deals with T1, MOP. Put plainly: biochemical.
In assay [11] the target is T1, MOP.
Assay [12] concerns the target T2, KOP.
The target in assay [13] is human kappa-opioid receptor (KOP) containing C-terminal Renilla luciferase (RLuc8) (human, UniProt P41145). Briefly: FRET or BRET.
For assay [14], the system named is KOP. Put plainly: Radioligand. Type of assay: binding, human. To be noted: agonist U69,593; KOP+Nb39 vs KOP only.

T2 sequence (P41145 whole entry): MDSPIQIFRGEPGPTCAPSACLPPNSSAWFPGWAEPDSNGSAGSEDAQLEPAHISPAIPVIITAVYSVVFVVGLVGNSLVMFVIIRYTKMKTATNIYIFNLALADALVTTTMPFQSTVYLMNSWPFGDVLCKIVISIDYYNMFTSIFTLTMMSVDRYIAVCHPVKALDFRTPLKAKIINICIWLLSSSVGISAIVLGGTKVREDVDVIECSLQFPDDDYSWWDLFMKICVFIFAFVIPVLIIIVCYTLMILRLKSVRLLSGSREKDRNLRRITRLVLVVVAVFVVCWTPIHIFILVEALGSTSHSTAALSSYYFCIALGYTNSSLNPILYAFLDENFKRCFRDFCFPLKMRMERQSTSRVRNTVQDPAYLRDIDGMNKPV
T3 sequence (P41145 whole entry): as above
human kappa-opioid receptor (KOP) containing C-terminal Renilla luciferase (RLuc8), sequence (P41145 whole entry): as above
T1 sequence (P35372 whole entry): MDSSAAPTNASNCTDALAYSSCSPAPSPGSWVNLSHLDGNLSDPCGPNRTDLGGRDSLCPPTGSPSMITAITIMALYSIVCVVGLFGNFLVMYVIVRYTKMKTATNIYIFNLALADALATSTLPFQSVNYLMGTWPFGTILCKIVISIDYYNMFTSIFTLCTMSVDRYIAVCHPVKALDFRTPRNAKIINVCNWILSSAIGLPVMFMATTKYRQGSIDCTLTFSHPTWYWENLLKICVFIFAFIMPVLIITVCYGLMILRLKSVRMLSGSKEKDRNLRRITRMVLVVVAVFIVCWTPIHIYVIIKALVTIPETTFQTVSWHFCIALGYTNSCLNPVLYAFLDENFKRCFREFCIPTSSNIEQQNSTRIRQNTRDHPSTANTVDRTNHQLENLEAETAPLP

The EC50 is the concentration at which the effect is half-maximal. In the case of `O=C(N[C@@H]1CC[C@@]2(O)[C@H]3Cc4ccc(O)c5c4[C@@]2(CCN3CC2CC2)[C@H]1O5)c1cccc(I)c1` [IBNtxA], the “Emax Gi activation (cAMP inhibition) in MOP” value on MOP [1] was 99±6. Besides, the EC50 on MOP [1] (read-out: EC50 Gi activation (cAMP inhibition) in MOP) is 0.056 ± 0.012 nM; on KOP [2] (read-out: EC50 Gi activation (cAMP inhibition) in KOP) it was 0.002 ± 0.001 nM; at KOP wt [3] (read-out: EC50 arrestin recruitment (Tango) in KOP wt) it was 0.032 ± 0.01 nM; at MOP [4] (read-out: EC50 arrestin recruitment (Tango) in MOP) it was 0.075 nM and 0.1 nM. The “Emax Gi activation (cAMP inhibition) in KOP” value at KOP [2] is recorded as 96±1. Moreover, the “Emax arrestin recruitment in KOP wt, Figure 5D” value on KOP wt [3] (Figure 5D, comparison with Y312^7.35W) came to 112±10. For the same molecule, the “Emax arrestin recruitment (Tango) in KOP wt” value on KOP wt [3] (method: normalized to % SalA stimulation) is 95±8 and 113±12. Moreover, the “Emax arrestin recruitment (Tango) in MOP” value at MOP [4] was 25±6 and 23±4. On MOP [5], the “Bias factor towards G protein in MOP, 10^ΔΔLog(τ/KA)” value is 9.

For the molecule `CC(C)[C@@H](CN1CC[C@@](C)(c2cccc(O)c2)[C@@H](C)C1)NC(=O)[C@H]1Cc2ccc(O)cc2CN1` [JDTic], on KOP [6], the “Nb39 recruitment to KOP (in words)” value is recorded as “no effect”.

Broadly, the Emax is the size of the effect at its maximum, as opposed to the concentration needed. On to `C=CCN1CC[C@]23c4c5ccc(O)c4OC2[C@H](NC(=O)c2ccc(F)c(I)c2)CC[C@@]3(O)C1C5` (stereo partly drawn) [MP903, N-((4aS,7R,12bS)-3-allyl-4a,9-dihydroxy-2,3,4,4a,5,6,7,7a-octahydro-1H-4,12-methanobenzofuro[3,2-e]isoquinolin-7-yl)-4-fluoro-3-iodobenzamide], for which the EC50 on KOP wt [7] worked out at 0.074 ± 0.012 nM; at MOP [8], 0.12 ± 0.05 nM. The Emax on KOP wt [7] (read-out: Emax arrestin recruitment (Tango) in KOP wt) was 108 ± 10%; on MOP [8] (read-out: Emax arrestin recruitment (Tango) in MOP) it was 33 ± 5%.

Usually Ki stands for the equilibrium dissociation constant of an inhibitor or competing ligand from its target. For `O=C(N[C@@H]1C=CC2C3Cc4ccc(O)c5c4[C@@]2(CCN3CC2CC2)C1O5)c1ccccc1` (stereo partly drawn) [MP1108, N-((7R,12bS)-3-(cyclopropylmethyl)-9-hydroxy-2,3,4,4a,7,7a-hexahydro-1H-4,12-methanobenzofuro[3,2-e]isoquinolin-7-yl)benzamide], the Ki was 0.42 ± 0.05 nM on KOP [9] and 0.42 ± 0.06 nM at MOP [10].

On to `O=C(N[C@@H]1C=CC2C3Cc4ccc(O)c5c4[C@@]2(CCN3CC2CC2)C1O5)c1cccc(Cl)c1` (stereo partly drawn) [MP1109, 3-Chloro-N-((7R,12bS)-3-(cyclopropylmethyl)-9-hydroxy-2,3,4,4a,7,7a-hexahydro-1H-4,12-methanobenzofuro[3,2-e]isoquinolin-7-yl)benzamide], for which the Ki was 0.13 ± 0.03 nM at KOP [9] and 0.16 ± 0.05 nM on MOP [10].

For `O=C(N[C@@H]1C=CC2C3Cc4ccc(O)c5c4[C@@]2(CCN3CC2CC2)C1O5)c1cccc(Br)c1` (stereo partly drawn) [MP1110, 3-Bromo-N-((7R,12bS)-3-(cyclopropylmethyl)-9-hydroxy-2,3,4,4a,7,7a-hexahydro-1H-4,12-methanobenzofuro[3,2-e]isoquinolin-7-yl)benzamide], the inhibitory constant (Ki) at KOP [9] was determined as 0.12 ± 0.04 nM; at MOP [10] it was 0.18 ± 0.04 nM.

As for `O=C(N[C@@H]1C=CC2C3Cc4ccc(O)c5c4[C@@]2(CCN3CC2CC2)C1O5)c1ccccc1I` (stereo partly drawn) [MP1111, N-((7R,12bS)-3-(cyclopropylmethyl)-9-hydroxy-2,3,4,4a,7,7a-hexahydro-1H-4,12-methanobenzofuro[3,2-e]isoquinolin-7-yl)-2-iodobenzamide], the Ki at KOP [9] worked out at 0.27 ± 0.06 nM; at MOP [10], 0.2 ± 0.05 nM.

For `O=C(N[C@@H]1C=CC2C3Cc4ccc(O)c5c4[C@@]2(CCN3CC2CC2)C1O5)c1ccc(I)cc1` (stereo partly drawn) [MP1112, N-((7R,12bS)-3-(cyclopropylmethyl)-9-hydroxy-2,3,4,4a,7,7a-hexahydro-1H-4,12-methanobenzofuro[3,2-e]isoquinolin-7-yl)-4-iodobenzamide], the Ki was determined as 0.12 ± 0.03 nM on KOP [9] and 0.17 ± 0.03 nM at MOP [10].

With `O=C(N[C@@H]1C=CC2C3Cc4ccc(O)c5c4[C@@]2(CCN3CC2CC2)C1O5)c1cccc(C(F)(F)F)c1` (stereo partly drawn) [MP1113, N-((7R,12bS)-3-(cyclopropylmethyl)-9-hydroxy-2,3,4,4a,7,7a-hexahydro-1H-4,12-methanobenzofuro[3,2-e]isoquinolin-7-yl)-3-(trifluoromethyl)benzamide], the Ki on KOP [9] worked out at 0.14 ± 0.07 nM; on MOP [10], 0.24 ± 0.06 nM.

On to `O=C(N[C@@H]1C=CC2C3Cc4ccc(O)c5c4[C@@]2(CCN3CC2CC2)C1O5)c1cccc(F)c1` (stereo partly drawn) [MP1114, N-((7R,12bS)-3-(cyclopropylmethyl)-9-hydroxy-2,3,4,4a,7,7a-hexahydro-1H-4,12-methanobenzofuro[3,2-e]isoquinolin-7-yl)-3-fluorobenzamide], for which the Ki is 0.16 ± 0.07 nM at KOP [9] and 0.27 ± 0.08 nM at MOP [10].

For `Cc1cccc(C(=O)N[C@@H]2C=CC3C4Cc5ccc(O)c6c5[C@@]3(CCN4CC3CC3)C2O6)c1` (stereo partly drawn) [MP1115, N-((7R,12bS)-3-(cyclopropylmethyl)-9-hydroxy-2,3,4,4a,7,7a-hexahydro-1H-4,12-methanobenzofuro[3,2-e]isoquinolin-7-yl)-3-methylbenzamide], the results for the Ki at KOP [9] and at MOP [10] were 0.18 ± 0.08 nM and 0.25 ± 0.06 nM, respectively.

At MOP [10], `CN(C(=O)/C=C/c1ccoc1)[C@@H]1CC[C@@]2(O)[C@H]3Cc4ccc(O)c5c4[C@@]2(CCN3CC2CC2)[C@H]1O5` [Nalfurafine, reference compound] returned a Ki of 4.2 ± 0.21 nM.

As to `CN(C(=O)/C=C/c1ccoc1)[C@@H]1CC[C@@]2(O)[C@H]3Cc4cccc5c4[C@@]2(CCN3CC2CC2)[C@H]1O5` [compound 18], the inhibition constant (Ki) was 533 ± 65 nM on MOP [11] and 1.5 ± 0.05 nM on KOP [12].

B1: Nb39 containing a C-terminal YFP (VHH)
VHH: QVQLVESGGGLVRPGGSLRLSCVDSERTSYPMGWFRRAPGKEREFVASITWSGIDPTYADSVADRFTTSRDVANNTLYLQMNSLKHEDTAVYYCAARAPVGQSSSPYDYDYWGQGTQVTVSS
Turning to B1, in [13], the “EC50 of the agonist MP1104 for recruitment of Nb39 to KOP (BRET)” value turned out to be 0.12 ± 0.02 nM; the “EC50 of the agonist SalA for recruitment of Nb39 to KOP (BRET)” value was 11.3 nM and 11.2 nM and 10.2 nM; the “EC50 of the agonist U69,593 for recruitment of Nb39 to KOP (BRET)” value was 3.78 ± 0.04 nM; the “EC50 of the partial agonist diprenorphine for recruitment of Nb39 to KOP (BRET)” value came to 5.2 ± 0.03 nM. For the same molecule, the “Attenuation of agonist dissociation rate at KOP” value in the assay with KOP [14] is “approximately 6 fold”.
